The results in this text go back to patent US6902744B1, “Exendin agonist formulations and methods of administration thereof” (Amylin Pharmaceuticals, Inc., priority 1999, dated 2005).

In this experiment the test system is Sprague-Dawley rats. The experiment in a line: Insulinotropic action during an intravenous glucose challenge in rats. It counts as in vivo. Conditions: peptide 30 pmol/kg/min i.v.; n.s. versus saline.

Take GLP-1[7-36]NH2: the “increase of 60-min insulin AUC versus saline-treated rats” value came to 20%.
